We go through 16 compounds from PubChem BioAssay (NCI).

Test systems include MOLT-4 leukemia; MALME-3M melanoma; MDA-MB-231 breast; T-47D breast; SF-268 CNS; OVCAR-8 ovarian; TK-10 renal; OVCAR-5 ovarian; MCF7 breast; HT29 colon.
Common to all, as to experiment: DTP human tumour cell line panel, 48 h

Several values for one entry are separate records, joined by “and”; a condition that tells them apart may be missing. Equal values may be shown once.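 These data come from cells grown in 96-well plates and exposed to compound for 48 hours at five concentrations. The concentration for 50% growth inhibition is given as GI50. TGI marks complete inhibition of growth.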 Bounds are passed on as bounds.

The GI50 is the concentration that inhibits growth by half. One may read the TGI as the concentration giving total growth inhibition. Read a low TGI as greater sensitivity of the cells. As for `C/C(=N/NC(=S)Nc1ccccc1)c1nc2ccc(Cl)cc2[nH]1`, the GI50 in the experiment on MOLT-4 leukemia was 0.086 µM; with MALME-3M melanoma it was 0.0737 µM; in the experiment on MDA-MB-231 breast, 0.205 µM; in the experiment with T-47D breast, 0.292 µM; in the experiment on SF-268 CNS, 0.0747 µM; in the experiment with OVCAR-8 ovarian it was 0.16 µM. For the same compound, the GI50 in the experiment on TK-10 renal was 0.539 µM. For the same compound, the TGI in the experiment with MOLT-4 leukemia was determined as 1.1 µM; in the experiment on MALME-3M melanoma, 0.401 µM; with MDA-MB-231 breast, 1.79 µM; in the experiment on T-47D breast, 1.56 µM; in the experiment on SF-268 CNS, 0.858 µM; in the experiment on OVCAR-8 ovarian, 1.15 µM. In the experiment with TK-10 renal, the TGI was 2.61 µM.
Consider `COc1ccc(-c2ccc(C3CC(c4ccccc4)=NN3)o2)c([N+](=O)[O-])c1` (stereo not drawn), for which the GI50 in the experiment with MOLT-4 leukemia is 22.9 µM; with T-47D breast, greater than 100 µM; in the experiment with SF-268 CNS it was 37.8 µM; with OVCAR-5 ovarian, greater than 100 µM; in the experiment with MCF7 breast, 31.8 µM; in the experiment on HT29 colon it was 51.3 µM. For the same compound, the GI50 in the experiment with OVCAR-8 ovarian is 51.2 µM; in the experiment on TK-10 renal it was 22.1 µM. Also, the concentration for total growth inhibition (TGI) in the experiment on MOLT-4 leukemia was 72.9 µM; in the experiment on T-47D breast, greater than 100 µM; in the experiment with SF-268 CNS it was greater than 100 µM; with OVCAR-5 ovarian, greater than 100 µM; in the experiment with MCF7 breast, greater than 100 µM; with HT29 colon, greater than 100 µM. Moreover, the TGI in the experiment on OVCAR-8 ovarian was greater than 100 µM; in the experiment on TK-10 renal it was 63.8 µM.
In the case of `O=C1NC(=NCCc2ccc(Cl)cc2)S/C1=C\c1ccc2ncccc2c1`, the GI50 in the experiment with MOLT-4 leukemia is 18.8 µM; with MALME-3M melanoma, greater than 25 µM; in the experiment with MDA-MB-231 breast, greater than 25 µM; in the experiment on T-47D breast, 18.1 µM; in the experiment with SF-268 CNS it was 11.7 µM; in the experiment with OVCAR-5 ovarian, greater than 25 µM. In addition, the results for the GI50 in the experiment on MCF7 breast, with HT29 colon and with OVCAR-8 ovarian were 10.2 µM, greater than 13 µM and 12.9 µM, respectively. Moreover, the TGI in the experiment with MOLT-4 leukemia, in the experiment on MALME-3M melanoma, in the experiment on MDA-MB-231 breast, with T-47D breast, in the experiment on SF-268 CNS and with OVCAR-5 ovarian was greater than 25 µM each time. Further, the TGI in the experiment with MCF7 breast, in the experiment on HT29 colon and in the experiment with OVCAR-8 ovarian was greater than 25 µM throughout.
As to `CC1CCC2C(C)C(=O)OC2C2(C)C(=O)C=CC12` (stereo not drawn), the total growth inhibition concentration (TGI) in the experiment with MOLT-4 leukemia, in the experiment with MDA-MB-231 breast, in the experiment with T-47D breast, in the experiment with SF-268 CNS, in the experiment on OVCAR-5 ovarian and in the experiment on MCF7 breast was greater than 10 µM throughout. For the same compound, the total growth inhibition concentration (TGI) in the experiment on HT29 colon, with OVCAR-8 ovarian and with TK-10 renal was greater than 10 µM in each case.
Turning to `COc1cc2c(cc1C)NC(=O)/C2=C/c1ccnc2ccccc12`, the GI50 with MOLT-4 leukemia is greater than 50 µM; in the experiment with MDA-MB-231 breast it was 9.49 µM; with T-47D breast, 28.7 µM; with SF-268 CNS it was 18 µM; with OVCAR-5 ovarian it was 30 µM; with MCF7 breast it was 8.72 µM. The figures for the GI50 in the experiment on OVCAR-8 ovarian and in the experiment with TK-10 renal were 19.1 µM and 35.8 µM, respectively. Further, the TGI in the experiment on MOLT-4 leukemia is greater than 50 µM; with MDA-MB-231 breast, 32.6 µM; in the experiment with T-47D breast it was greater than 50 µM; with SF-268 CNS it was greater than 50 µM; in the experiment on OVCAR-5 ovarian it was greater than 50 µM; in the experiment on MCF7 breast, greater than 50 µM. The concentration for total growth inhibition (TGI) in the experiment on OVCAR-8 ovarian and with TK-10 renal was greater than 50 µM throughout.
Take `NCCO/C=C/C(N)C(=O)O` (stereo not drawn): the total growth inhibition concentration (TGI) in the experiment with MDA-MB-231 breast, with T-47D breast, in the experiment on SF-268 CNS, in the experiment on OVCAR-5 ovarian, in the experiment on MCF7 breast and in the experiment with HT29 colon was greater than 100 µM in each case. Also, the TGI in the experiment with OVCAR-8 ovarian and with TK-10 renal was greater than 100 µM throughout.
For `CCN(CC)C(=S)SSC(C)C`, the GI50 in the experiment with MOLT-4 leukemia was 3.76 µM; in the experiment with MALME-3M melanoma, 13.7 µM; in the experiment on MDA-MB-231 breast it was 14.6 µM; in the experiment on T-47D breast, 14.2 µM; in the experiment on SF-268 CNS, 16.2 µM; in the experiment on OVCAR-5 ovarian, 18.3 µM. Besides, the GI50 in the experiment on HT29 colon is 14.8 µM; in the experiment on OVCAR-8 ovarian, 15.1 µM; with TK-10 renal it was 20.3 µM. Besides, the TGI with MOLT-4 leukemia worked out at 25.4 µM; in the experiment on MALME-3M melanoma, 30 µM; in the experiment on MDA-MB-231 breast, 32.5 µM; in the experiment with T-47D breast, 33.7 µM; in the experiment with SF-268 CNS, 37 µM; with OVCAR-5 ovarian it was 32.6 µM. Moreover, the TGI stood at 29.8 µM in the experiment on HT29 colon, 35.4 µM with OVCAR-8 ovarian and 38 µM with TK-10 renal.
Turning to `CC(C)Cc1cnc(CC(C)C)c(=O)[nH]1`, the concentration for total growth inhibition (TGI) in the experiment on MOLT-4 leukemia, in the experiment on MDA-MB-231 breast, in the experiment on T-47D breast, in the experiment with SF-268 CNS, with OVCAR-5 ovarian and with MCF7 breast was greater than 100 µM in each case. For the same compound, the concentration for total growth inhibition (TGI) with HT29 colon, in the experiment on OVCAR-8 ovarian and in the experiment with TK-10 renal was greater than 100 µM throughout.
For `O=C(Nc1sc2c(c1C(=O)O)CCCC2)c1ccco1`, the GI50 is greater than 50 µM in the experiment with MOLT-4 leukemia; greater than 50 µM in the experiment on MDA-MB-231 breast; greater than 50 µM in the experiment with T-47D breast; 25.7 µM in the experiment on SF-268 CNS; 26.5 µM in the experiment with MCF7 breast; greater than 50 µM with OVCAR-8 ovarian. The GI50 in the experiment on TK-10 renal is greater than 50 µM. Besides, the total growth inhibition concentration (TGI) in the experiment with MOLT-4 leukemia, with MDA-MB-231 breast, in the experiment on T-47D breast, in the experiment on SF-268 CNS, with MCF7 breast and in the experiment with OVCAR-8 ovarian was greater than 50 µM each time. In the experiment with TK-10 renal, this compound displayed a TGI greater than 50 µM.
`C=C1C(=O)O[C@@H]2/C=C(/C)[C@@H](OC(C)=O)C/C=C(\C)C(O)[C@@H](OC(=O)/C(C)=C\C)C12` (stereo partly drawn): the TGI is 74.6 µM with MOLT-4 leukemia; 39.2 µM in the experiment with MDA-MB-231 breast; 39.7 µM with T-47D breast; greater than 100 µM with SF-268 CNS; greater than 100 µM in the experiment with OVCAR-5 ovarian; greater than 100 µM with MCF7 breast. Also, the results for the total growth inhibition concentration (TGI) in the experiment on HT29 colon, in the experiment with OVCAR-8 ovarian and with TK-10 renal were 40.1 µM, 75.3 µM and greater than 100 µM, respectively.
For the compound `CCCCCCCC/C=C/CCCCCCCC1=NC(C)(C)CN1C(C)(C)CO`, the GI50 was 2.62 µM in the experiment on MOLT-4 leukemia; 1.6 µM with MDA-MB-231 breast; 3.39 µM with T-47D breast; 2.01 µM with SF-268 CNS; 2.15 µM in the experiment on OVCAR-5 ovarian; 1.82 µM in the experiment with MCF7 breast. Besides, the GI50 in the experiment with HT29 colon was 1.45 µM; in the experiment on TK-10 renal, 2.61 µM. Also, the concentration for total growth inhibition (TGI) came to 5.81 µM in the experiment on MOLT-4 leukemia; 3.77 µM in the experiment on MDA-MB-231 breast; 11.8 µM in the experiment with T-47D breast; 3.84 µM with SF-268 CNS; 5.09 µM with OVCAR-5 ovarian; 3.43 µM in the experiment on MCF7 breast. The concentration for total growth inhibition (TGI) in the experiment with HT29 colon is 3.38 µM; in the experiment with TK-10 renal, 7.46 µM.
Consider `CCCCNC(c1ccc(Cl)cc1)C(O)c1ccc(Cl)cc1` (stereo not drawn), for which the GI50 with MOLT-4 leukemia is 1.67 µM; in the experiment on MALME-3M melanoma, 1.52 µM; in the experiment on T-47D breast, 1.67 µM; in the experiment on SF-268 CNS, 3.21 µM; with OVCAR-5 ovarian, 2.94 µM; in the experiment with MCF7 breast, 1.95 µM. In addition, the values for the GI50 with HT29 colon, in the experiment with OVCAR-8 ovarian and with TK-10 renal were 0.792 µM, 2.51 µM and 2.2 µM, respectively. In addition, the TGI with MOLT-4 leukemia is 6.67 µM; in the experiment on MALME-3M melanoma it was 3.08 µM; with T-47D breast, 4.52 µM; in the experiment on SF-268 CNS, 16.3 µM; in the experiment on OVCAR-5 ovarian, 15.7 µM; with MCF7 breast, 5.03 µM. For the same compound, the TGI with HT29 colon amounted to 2.74 µM; in the experiment on OVCAR-8 ovarian, 6.02 µM; in the experiment on TK-10 renal, 6.99 µM.
For `OCC(O)C(O)C(O)C(/C=N\Nc1ncnc2c(Br)cc(Br)cc12)=N/Nc1ncnc2c(Br)cc(Br)cc12` (stereo not drawn), the GI50 was 4.91 µM and 2.37 µM in the experiment on MOLT-4 leukemia; 5.83 µM and 41.2 µM in the experiment on OVCAR-5 ovarian; 11.7 µM and 3.76 µM with OVCAR-8 ovarian. Further, the total growth inhibition concentration (TGI) in the experiment with MOLT-4 leukemia was 34.3 µM and > 100 µM; with MALME-3M melanoma it was 14.4 µM and > 100 µM; in the experiment with MDA-MB-231 breast, 15.7 µM and > 100 µM; with SF-268 CNS, 11.9 µM and > 100 µM; with OVCAR-5 ovarian, 46.1 µM and > 100 µM; with MCF7 breast, 37.4 µM and > 100 µM. The TGI was 42 µM and > 100 µM in the experiment on HT29 colon; 28.3 µM and > 100 µM in the experiment with OVCAR-8 ovarian; 28.1 µM and > 100 µM with TK-10 renal.
For `CCOc1c(Br)cc(Br)cc1C=C(C#N)C#N`, the TGI in the experiment with MOLT-4 leukemia, with MALME-3M melanoma, with T-47D breast, in the experiment on SF-268 CNS, in the experiment on MCF7 breast and with HT29 colon was greater than 10 µM each time. For the same compound, the total growth inhibition concentration (TGI) in the experiment on OVCAR-8 ovarian and in the experiment with TK-10 renal was greater than 10 µM each time.
Regarding `Cc1cccc(N2C(=O)/C(=C/C(Cl)=C/c3ccc([N+](=O)[O-])cc3)SC2=S)c1C`, the GI50 with MOLT-4 leukemia is 1.02 µM; in the experiment with MDA-MB-231 breast, 2.2 µM; in the experiment on T-47D breast, 2.7 µM; in the experiment with OVCAR-5 ovarian, 2.43 µM; in the experiment with MCF7 breast, 0.786 µM; with HT29 colon, 1.13 µM. The GI50 in the experiment on OVCAR-8 ovarian was 1.08 µM; in the experiment on TK-10 renal it was 3.17 µM. The TGI is greater than 100 µM in the experiment with MOLT-4 leukemia; 5.52 µM in the experiment with MDA-MB-231 breast; greater than 100 µM in the experiment on T-47D breast; 5.67 µM in the experiment with OVCAR-5 ovarian; greater than 100 µM in the experiment on MCF7 breast; greater than 100 µM in the experiment with HT29 colon. For the same compound, the TGI in the experiment on OVCAR-8 ovarian and in the experiment on TK-10 renal was greater than 100 µM in each case.
On to `O=c1c(-c2ccc3c(c2)OCO3)coc2c3c(ccc12)OCO3`, for which the TGI in the experiment with MOLT-4 leukemia is greater than 100 µM; in the experiment with MDA-MB-231 breast, 41 µM; with T-47D breast it was greater than 100 µM; in the experiment with SF-268 CNS, 43.3 µM; in the experiment on OVCAR-5 ovarian, greater than 100 µM; with MCF7 breast, 33.7 µM. In addition, the total growth inhibition concentration (TGI) with TK-10 renal is 36.8 µM.
